Test results published in patent publication US9487506B2, “Mineralocorticoid receptor antagonists” (Merck Sharp & Dohme Corp., priority 2011, dated 2016).

What follows are compounds tested against T1, full-length human Mineralocorticoid Receptor (MR) (Homo sapiens, UniProt P08235) (assay: human MR NH Pro assay (PathHunter Protein:Protein interaction assay), MR antagonist activity). Settings: PathHunter CHO-K1 cells overexpressing human MR; aldosterone 0.3 nM to about 1 nM; 6 hours at 37° C.; luminescence; read-out: IP (rating); IP is the inflection point for a given dose-response titration curve.
T1 construct: host or cells: PathHunter CHO-K1 cells
T1 sequence (P08235 1-984): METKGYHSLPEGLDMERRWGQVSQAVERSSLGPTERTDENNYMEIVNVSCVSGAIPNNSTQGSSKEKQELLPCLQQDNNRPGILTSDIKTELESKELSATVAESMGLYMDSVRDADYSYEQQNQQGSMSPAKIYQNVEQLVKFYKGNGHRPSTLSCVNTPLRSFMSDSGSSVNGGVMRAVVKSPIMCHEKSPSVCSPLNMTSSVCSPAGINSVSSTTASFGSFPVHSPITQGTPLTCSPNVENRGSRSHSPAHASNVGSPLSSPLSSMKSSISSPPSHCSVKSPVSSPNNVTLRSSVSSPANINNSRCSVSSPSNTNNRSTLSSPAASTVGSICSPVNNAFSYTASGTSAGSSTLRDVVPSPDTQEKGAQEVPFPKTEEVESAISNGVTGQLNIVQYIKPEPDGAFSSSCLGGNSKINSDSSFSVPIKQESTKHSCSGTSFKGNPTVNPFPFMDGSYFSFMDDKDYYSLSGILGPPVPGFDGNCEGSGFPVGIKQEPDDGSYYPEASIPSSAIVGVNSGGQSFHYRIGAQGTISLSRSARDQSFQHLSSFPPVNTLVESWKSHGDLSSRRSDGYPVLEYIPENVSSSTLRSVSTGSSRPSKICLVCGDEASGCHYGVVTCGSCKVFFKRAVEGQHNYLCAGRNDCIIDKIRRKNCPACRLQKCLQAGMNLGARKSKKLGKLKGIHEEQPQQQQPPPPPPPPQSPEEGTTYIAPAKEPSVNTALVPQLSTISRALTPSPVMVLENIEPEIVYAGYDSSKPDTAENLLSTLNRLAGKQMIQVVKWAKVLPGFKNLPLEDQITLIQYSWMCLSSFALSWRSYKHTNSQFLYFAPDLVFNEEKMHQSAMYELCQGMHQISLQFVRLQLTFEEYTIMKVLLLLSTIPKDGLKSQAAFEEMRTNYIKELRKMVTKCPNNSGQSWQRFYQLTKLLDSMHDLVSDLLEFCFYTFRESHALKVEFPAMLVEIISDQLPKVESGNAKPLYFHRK
Assay type: cell-based
Description: The activity of the compounds of the present invention regarding mineralocorticoid receptor antagonism can be evaluated using the following assay.
Assessment of MR Potency in HMR NH Pro Assay
The human MR NH Pro assay is a commercially available PathHunter™ Protein:Protein interaction assay (DiscoveRx; http://www.discoverx.com/nhrs/prod-nhrs.php) that measures the ability of compounds to antagonize full-length human Mineralocorticoid Receptor (MR) binding to a coactivator peptide. PathHunter™ CHO-K1 cells that overexpress human MR (Cat #93-0456C2, Lot No: 09B0913) were cultured in growth media (F12K w/Glutamine and phenol red (Gibco 11765-047) supplemented with 10% HI FBS (Gibco 16000); 0.25 mg/ml Hygromycin in PBS (Invitrogen 10687-010, 50 mg/ml); 100 I.U./mL and 100 μg/mL Pen/Strep (Gibco 15140-122); 0.6 mg/mL Geneticin (Gibco 10131-027).
Compounds were assessed for MR antagonist activity by incubating the cells with a titrating dose of compound in F12K w/Glutamine and phenol red culture media (Invitrogen 11765-047) supplemented with 1% Charcoal/Dextran Treated FBS (Hyclone #SH30068.01) and aldosterone (0.3 nM to about 1 nM) for 6 hours at 37° C. Cells were then treated with DiscoveRx detection reagent for 1 hour at room temperature and read using an Envision luminescence plate reader. % activity was measured relative to cells treated with aldosterone alone and IC50 values were calculated using ADA software.
Stock solution was prepared at 10 μM in DMSO and stored at −20° C. for assay, dilute in assay media to 1.8 or 6 nM (6× of final concentration=about 0.3 nM to about 1.0 nM)
5. Cell line: PathHunter CHO-K1 MR cells Cat #93-0456C2, Lot No: 09B0913, from operation liquid nitrogen stock.
3. The cells concentration was adjusted to 4×10^5 cells/mL.
4. Cells were (25 μL/well) added to the wells of a 384 well plate.
5. The plate was then incubated at 37° C. over night in a humidified incubator with 5% CO2.
6. Test compounds were titrated starting at 4.4 mM, 10-point titration in 1:3 dilution.
7. Aldosterone was diluted in assay media to 1.8 nM or 6 nM from 10 μM stock (final concentration to be about 0.3 nM to about 1.0 nM)
1. 10K exponentially growing cells/well (25 μL) were resuspended in assay media and plated into each well using the Multidrop (Thermo Electron) (use white wall, clear bottom assay plates (Costar #3570) and incubated overnight at 37° C., 5% CO2.
2. 0.25 μL 120× test compound (final DMSO concentration should be <1%) was added to each well n=2, 10 point titrations starting at 36.7 μM final concentration.
3. 5 μL of 6× agonist (final aldosterone concentration should be about 0.3 nM to about 1.0 nM) was added to all wells (using the PlateMate Plus; (ThermoFisher) (except those wells in columns 23 and 24)
4. 5 μL of assay media was added to all wells in column 23 and 24.
5. Cells were then incubated for 6 hrs at 37° C., 5% CO2.
6. 15 μL 3× DiscoveRx detection reagent was then added to each well.
7. Plates were incubated for 1 hour at room temperature in the dark.
8. Plates were read on Envision (PerkinElmer) luminesence plate reader and analyzed using ADA.

IC50, < 100 nM:
CS(=O)(=O)Nc1cccc2c(C(CCC#N)c3ccc(Cl)cc3F)n[nH]c12 (single isomer, unassigned) [Example 2, N-{3-[1-(4-chloro-2-fluorophenyl)-3-cyanopropyl]-1H-indazol-7-yl}methanesulfonamide (Single Enantiomer)]
CCC(c1ccc(Cl)cc1)(c1n[nH]c2c(NS(C)(=O)=O)cccc12)C(C)O (single isomer, unassigned; diastereoisomer a) [Compound 24A, N-(3-(3-(4-chlorophenyl)-2-hydroxypentan-3-yl)-1H-indazol-7-yl)methane sulfonamide(diastereoisomer A)]
CCC(c1ccc(Cl)cc1)(c1n[nH]c2c(NS(C)(=O)=O)cccc12)C(C)O (single isomer, unassigned; diastereoisomer b) [Compound 24B]
CCC(CO)(c1ccc(Cl)cc1)c1n[nH]c2c(NS(C)(=O)=O)cccc12 (centres unmarked) [Compound 25, N-(3-(2-(4-chlorophenyl)-1-hydroxybutan-2-yl)-1H-indazol-7-yl)methane sulfonamide]

IC50, 500 to 6000 nM:
CCC(C#N)(c1ccc(Cl)cc1)c1n[nH]c2c([N+](=O)[O-])cccc12 (centres unmarked) [Compound 22, 2-(4-chlorophenyl)-2-(7-nitro-1H-indazol-3-yl)butanenitrile]
CCC(C#N)(c1ccc(Cl)cc1)c1n[nH]c2c(NS(C)(=O)=O)cccc12 (centres unmarked) [Compound 23, N-(3-(1-(4-chlorophenyl)-1-cyanopropyl)-1H-indazol-7-yl)methanesulfonamide]
Fc1cc(Cl)ccc1Cc1n[nH]c2ccccc12 [Example 1, 3-(4-chloro-2-fluorobenzyl)-1H-indazole]
N#CCCC(c1ccc(Cl)cc1F)c1n[nH]c2c(-c3cccnc3)cccc12 (centres unmarked) [Example 3, 4-(4-chloro-2-fluorophenyl)-4-(7-pyridin-3-yl-1H-indazol-3-yl)butanenitrile]
N#CCCC(c1ccc(Cl)cc1F)c1n[nH]c2c(-c3ccncc3)cccc12 (centres unmarked) [Example 4, 4-(4-chloro-2-fluorophenyl)-4-(7-pyridin-4-yl-1H-indazol-3-yl)butanenitrile]
CS(=O)(=O)Nc1cccc2c(C(CC#N)c3ccc(Cl)cc3F)n[nH]c12 (centres unmarked) [Example 6, N-{3-[1-(4-chloro-2-fluorophenyl)-2-cyanoethyl]-1H-indazol-7-yl}methanesulfonamide]
N#CCCC(c1ccc(Cl)cc1F)c1n[nH]c2c(NS(=O)(=O)C3CC3)cccc12 (centres unmarked) [Example 7, N-{3-[1-(4-chloro-2-fluorophenyl)-3-cyanopropyl]-1H-indazol-7-yl}cyclopropanesulfonamide]
Cc1noc(CCC(c2ccc(Cl)cc2F)c2n[nH]c3c(NS(C)(=O)=O)cccc23)n1 (centres unmarked) [Example 8, N-{3-[1-(4-chloro-2-fluorophenyl)-3-(3-methyl-1,2,4-oxadiazol-5-yl)propyl]-1H-indazol-7-yl}methanesulfonamide]
CC(=O)CCC(c1ccc(Cl)cc1F)c1n[nH]c2c(NS(C)(=O)=O)cccc12 (centres unmarked) [Example 9, N-{3-[1-(4-chloro-2-fluorophenyl)-4-oxopentyl]-1H-indazol-7-yl}methanesulfonamide]
CC(C)(O)CCC(c1ccc(Cl)cc1F)c1n[nH]c2c(NS(C)(=O)=O)cccc12 (centres unmarked) [Example 10, n-{3-[1-(4-chloro-2-fluorophenyl)-4-hydroxy-4-methylpentyl]-1H-indazol-7-yl}methanesulfonamide]

IC50, 100 to 500 nM:
CS(=O)(=O)Nc1cccc2c(C(CCCO)c3ccc(Cl)cc3F)n[nH]c12 (centres unmarked) [Example 5, N-{3-[1-(4-chloro-2-fluorophenyl)-4-hydroxybutyl]-1H-indazol-7-yl}methanesulfonamide]

Same assay, conditions: enantiomers from chiral SFC OJ-H separation of the racemate

Relative MR antagonist activity of the separated enantiomers, more active:
CS(=O)(=O)Nc1cccc2c(C(CCC#N)c3ccc(Cl)cc3F)n[nH]c12 (single isomer, unassigned) [Example 2, N-{3-[1-(4-chloro-2-fluorophenyl)-3-cyanopropyl]-1H-indazol-7-yl}methanesulfonamide (Single Enantiomer)]

Relative MR antagonist activity of the separated enantiomers, less active:
CS(=O)(=O)Nc1cccc2c(C(CCC#N)c3ccc(Cl)cc3F)n[nH]c12 (single isomer, unassigned) [second peak, N-{3-[1-(4-Chloro-2-fluorophenyl)-3-cyanopropyl]-1H-indazol-7-yl}methanesulfonamide]
